# Results as given in patent publication US10910084B2, “Method for modelling, optimizing, parameterizing, testing and validating a dynamic network with network perturbations” (Albert-Ludwigs-Universität Freiburg, priority 2011, dated 2021).
# What was measured:
# Type in all cases: cell-based
# [1] = test system: mTOR-pS2481 (mTORC2 readout) in HeLa cells; assay: mTOR-pS2481 immunoblot of whole cell lysates, HeLa cells starved and induced with aa/insulin
# Procedure: (§1) Experiments were performed in particular in HeLa α Kyoto cells and C2C12 myoblasts. For inducible knock down of Raptor or TSC2, cells were transduced with lentivirus encoding the tetracycline-sensitive tTR-KRAB repressor and a DsRed reporter. Cells were subsequently transfected with lentivirus encoding the specific shRNA, and a GFP reporter, (pLVTH vector), both preferably under the control of tTR-KRAB. For lentivirus-mediated knock down of Rictor a pLKO.1-based short hairpin construct specific for Rictor (Addgene plasmid 1853), as well as a scrambled control sequence (Addgene plasmid 1864) can in particular be supplied from Addgene. HeLa cells were transfected with viral supernatant twice as described previously and harvested 60 hours after transfection.
# For calibration data sets, in particular HeLa cells can be starved for serum and amino acids by exchanging standard growth medium for Hank's Buffered Salt Solution (HBSS) (PAN Biotech GmbH, Aidenbach, Germany) over night to inhibit mTOR pathway activity. After 16 hours of starvation, mTOR signaling was restimulated with DMEM containing amino acids and supplemented with 100 nM insulin (Sigma Aldrich, St. Louis, Mo., USA).
# Gradual knockdowns of Raptor or TSC2 can preferably be established by induction with 5 μg/ml doxycycline (Calbiochem, Merck, Darmstadt, Germany) for 0, 1, 2, or 3 days. Cells can be starved for 16 hours in HBSS and mTOR signaling was induced with DMEM (PAA, Pasching, Austria) supplemented with 100 nM insulin. […] Wortmannin or LY294002 can in particular be added 30 min prior to and during the stimulation with DMEM supplemented 100 nM insulin. Cells can for example be washed once with PBS and lysed with TNE lysis buffer [50 mM Tris HCL pH8.0, 150 mM NaCl, 1% v/v TritonX-100 (Calbiochem, Merck, Darmstadt, Germany), Complete (Roche, Mannheim, Germany), Phosphatase Inhibitor Cocktail 2, Phosphatase Inhibitor Cocktail 3 (both Sigma Aldrich, St. Louis, Mo., USA)]. Protein concentrations can preferably be measured (Protein Assay Dye Reagent Concentrate, Bio-Rad, Hercules, Calif., USA) according to manufacturer's protocol. Concentrations can for example be adjusted with lysis buffer. […] Whole cell lysates can for example be analyzed using SDS-PAGE gels. […]
# (§2) HRP can for example be detected with the ECL Western Blotting Substrate or the SuperSignal West Femto reagent [Pierce Biotechnology (Thermo Scientific, Rockford, Ill. USA)], and the emitted light can in particular be detected and quantified with a chemiluminescence imaging analyzer (LAS4000mini; Fujifilm, Tokyo, Japan). Obtained images can preferably be analyzed with Multi-Gauge version 3.0 software (Fujifilm, Tokyo, Japan). […]
# Akt-pS473 in HeLa cells = assay: Akt-pS473 immunoblot of whole cell lysates, HeLa cells; conditions: HeLa cells starved, induced by aa/insulin for 30 and 50 min
# Procedure: as §1, with “HeLa cells were transfected with viral supernatant twice as described previously and harvested 60 hours after transfection.” left out
# (§3) Gradual knockdowns of Raptor or TSC2 can preferably be established by induction with 5 μg/ml doxycycline (Calbiochem, Merck, Darmstadt, Germany) for 0, 1, 2, or 3 days. […] Protein concentrations can preferably be measured (Protein Assay Dye Reagent Concentrate, Bio-Rad, Hercules, Calif., USA) according to manufacturer's protocol. […] Whole cell lysates can for example be analyzed using SDS-PAGE gels. […]
# as §2, with “Japan).” for “Japan). Obtained images can preferably be analyzed with Multi-Gauge version 3.0 software (Fujifilm, Tokyo, Japan).”
# [2] = test system: mTOR-pS2481 in C2C12 cells; assay: mTOR-pS2481 immunoblot in C2C12 myoblasts; conditions: continuous presence of aa/insulin
# Procedure: as §1, with “HeLa cells were transfected with viral supernatant twice as described previously and harvested 60 hours after transfection.” left out
# as §3
# as §2, with “Japan).” for “Japan). Obtained images can preferably be analyzed with Multi-Gauge version 3.0 software (Fujifilm, Tokyo, Japan).”
# [3] = test system: p70-S6K-pT389 (mTORC1 readout) in HeLa cells; assay: p70-S6K-pT389 immunoblot of whole cell lysates, HeLa cells; conditions: quantitation of 3 experiments; 200 nM PP242; Rapamycin; * P<0.05
# Procedure: as §1, with “HeLa cells were transfected with viral supernatant twice as described previously and harvested 60 hours after transfection.” left out
# as §3
# as §2, with “Japan).” for “Japan). Obtained images can preferably be analyzed with Multi-Gauge version 3.0 software (Fujifilm, Tokyo, Japan).”
# [4] = test system: mTOR-pS2481 associated with the immunoprecipitated mTORC2; assay: mTOR-pS2481 in mTORC2 immunoprecipitated with Sin1 antibody, HeLa cells; conditions: Sin1 immunoprecipitation
# Procedure: Immunoprecipitations can in particular be performed as described elsewhere. […] Immunoprecipitations were performed with 5 μg/ml antibody [antibody recognizing Sin1, Raptor, or rabbit IgG (all Bethyl)] and with magnetic Dynabeads Protein G (Invitrogen). Gradual knockdowns of Raptor or TSC2 can preferably be established by induction with 5 μg/ml doxycycline (Calbiochem, Merck, Darmstadt, Germany) for 0, 1, 2, or 3 days. Cells can be starved for 16 hours in HBSS and mTOR signaling was induced with DMEM (PAA, Pasching, Austria) supplemented with 100 nM insulin. […] Wortmannin or LY294002 can in particular be added 30 min prior to and during the stimulation with DMEM supplemented 100 nM insulin. […] Protein concentrations can preferably be measured (Protein Assay Dye Reagent Concentrate, Bio-Rad, Hercules, Calif., USA) according to manufacturer's protocol. […] Whole cell lysates can for example be analyzed using SDS-PAGE gels. […] HRP can for example be detected with the ECL Western Blotting Substrate or the SuperSignal West Femto reagent [Pierce Biotechnology (Thermo Scientific, Rockford, Ill. USA)], and the emitted light can in particular be detected and quantified with a chemiluminescence imaging analyzer (LAS4000mini; Fujifilm, Tokyo, Japan). Obtained images can preferably be analyzed with Multi-Gauge version 3.0 software (Fujifilm, Tokyo, Japan). […]
structure (smiles),measurement,setting,value
COC[C@H]1OC(=O)c2coc3c2[C@@]1(C)C1=C(C3=O)[C@@H]2CCC(=O)[C@@]2(C)C[C@H]1OC(C)=O [Wortmannin],Wortmannin concentrations at which mTORpS2481 was inhibited,"[1]; HeLa cells starved, induced by aa/insulin for 30 and 50 min",≥ 20 nM
same,Wortmannin concentration at which Akt-pS473 was already inhibited,Akt-pS473 in HeLa cells,5 nM
same,Wortmannin concentrations at which Akt-pS473 was strongly inhibited,Akt-pS473 in HeLa cells,≥ 10 nM
O=c1cc(N2CCOCC2)oc2c(-c3ccccc3)cccc12 [LY294002],LY294002 concentrations at which mTORpS2481 was reduced,[1]; HeLa cells (FIG. 10C),≥ 1 µM
CC(C)n1nc(-c2cc3cc(O)ccc3[nH]2)c2c(N)ncnc21 [PP242],amount of mTOR-pS2481,[2],decreased
same,mTOR-pS2481 abundance,"[1]; HeLa cells, short-term treatment",reduced the abundance of mTORpS2481 in a dose-dependent manner
same,"mTOR-pS2481 compared to DMSO-treated control, significance (FIG. 1E)","[1]; quantitation of 3 experiments, 200 nM PP242, 100 nM Rapamycin, * P<0.05",significant
same,"p70-S6K-pT389 compared to DMSO-treated control, significance (FIG. 1D)",[3],significant
same,mTOR-pS2481 associated with the immunoprecipitated mTORC2,[4],significantly reduced
